Article PMC12823633 (Cancer Chemotherapy and Pharmacology, 2026)
Where two headings read alike, the source gives them in different places.

Key:
CYP3A4 = conditions: 1’-hydroxymidazolam
CYP2C9 = CYP2C9 (Homo sapiens, UniProt P11712); assay: clinical; conditions: plasma, oral, 25 mg
[1] = Adverse events, DDI evaluation period; format: in vivo, human (patients with solid tumors)
[2] = midazolam 2.5 mg alone (Day −2)
[3] = midazolam 2.5 mg with TAS-115 250 mg once daily (Day 5)
[4] = After Administration of TAS-115, DDI period (N=18)
[5] = Before Administration of TAS-115 (N=18)
[6] = Entire DDI Evaluation Period (N=18)

CYP2C9, sequence (P11712 whole entry): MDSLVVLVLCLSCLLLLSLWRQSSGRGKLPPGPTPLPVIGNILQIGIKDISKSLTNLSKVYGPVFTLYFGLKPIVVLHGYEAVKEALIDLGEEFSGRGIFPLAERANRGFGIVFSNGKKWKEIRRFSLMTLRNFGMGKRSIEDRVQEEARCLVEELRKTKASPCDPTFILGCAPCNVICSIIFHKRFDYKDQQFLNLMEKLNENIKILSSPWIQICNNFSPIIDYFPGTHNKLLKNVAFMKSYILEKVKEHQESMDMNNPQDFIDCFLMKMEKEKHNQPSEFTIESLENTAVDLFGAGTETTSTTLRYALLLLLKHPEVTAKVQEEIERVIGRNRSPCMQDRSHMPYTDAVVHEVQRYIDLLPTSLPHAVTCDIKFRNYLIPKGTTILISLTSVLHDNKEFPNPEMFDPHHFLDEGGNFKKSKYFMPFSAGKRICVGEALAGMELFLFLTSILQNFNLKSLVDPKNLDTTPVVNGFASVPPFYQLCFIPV

Row | Structure (SMILES) | AUCinf, Geometric LSM (CYP3A4; [2]) [ng·h/mL] | AUClast, Geometric LSM (CYP3A4; [2]) [ng·h/mL] | Cmax, Geometric LSM (CYP3A4; [2]) [ng/mL] | AUCinf, Geometric LSM (CYP3A4; [3]) [ng·h/mL] | AUClast, Geometric LSM (CYP3A4; [3]) [ng·h/mL] | Cmax, Geometric LSM (CYP3A4; [3]) [ng/mL] | AUC(0-inf) (CYP2C9) [ng·h/mL] | AUC(0-t) (CYP2C9) [ng·h/mL] | Cmax (CYP2C9) [ng/mL] | Any >=Grade 3 TRAEs Related to Losartan [1, 4] | Any TRAEs Related to Losartan [1, 4] | Any >=Grade 3 TRAEs Related to Losartan [1, 5] | Any TRAEs Related to Losartan [1, 5] | TRAE (Grade 1 hypotension) related to losartan ([1]; DDI evaluation period, losartan administered after TAS-115) | Any >=Grade 3 TRAEs Related to Losartan [1, 6] | Any TRAEs Related to Losartan [1, 6]
1 | OCc1ncc2n1-c1ccc(Cl)cc1C(c1ccccc1F)=NC2 [1’-Hydroxymidazolam, 1’-hydroxymidazolam] | 19.92 | 19.33 | 8.195 | 20.86 | 20.13 | 8.391 | – | – | – | – | – | – | – | – | – | –
2 | CCCCc1nc(Cl)c(CO)n1Cc1ccc(-c2ccccc2-c2nn[nH]n2)cc1 [Losartan, losartan, reference compound] | – | – | – | – | – | – | 388 | 364 | 158 | 0 (0.0) N (%) | 1 (5.6) N (%) | 0 (0.0) N (%) | 0 (0.0) N (%) | one patient | 0 (0.0) N (%) | 1 (5.6) N (%)
